Series [1] deals with SMN2 minigene mRNA (SMN2-A minigene) in HEK293H cells. The series can be described thus: SMN2 minigene mRNA splicing RT-qPCR assay in cultured cells. Format: cell-based, human. The settings on record: Homo sapiens, HEK293-H; concentration increasing full length SMN2 mRNA 1.5-fold relative to vehicle-treated cells; HEK293H cells with SMN2-A minigene, 24 hours, 7-point concentration data; read-out: EC1.5x for production of full length SMN2 mRNA. An outline of the steps:
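EC1.5× values derive from a 24 h treatment of SMN2-A minigene HEK293H cells and GAPDH-normalized RT-qPCR of exon 7-included minigene mRNA relative to vehicle-treated cells.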
Background: Quantitative PCR measures a nucleic acid by following its amplification.

The test system of series [2] is Smn protein in SMA patient fibroblast cells (GM03813). The series can be described thus: Smn protein assay in cultured cells (SMN HTRF). Conditions: SMA patient fibroblast cells, 48 hours; for maximum fold (Fold) increase of Smn protein: 7-point concentration data, fold relative to vehicle control; for EC1.5x for Smn protein expression: 7-point concentration curve, SMN HTRF, concentration producing 1.5 times Smn protein vs DMSO vehicle control. Format: cell-based, human. An outline of the steps:
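Cells were cultured 72 h, seeded at 5,000/well and dosed with seven concentrations (3.16-fold apart) for 48 h. HTRF on lysates, read at 665 and 620 nm, gave blank-corrected ΔF values relative to DMSO. Potency is reported as EC1.5×, efficacy as maximal fold Smn increase.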
A general note: TR-FRET usually uses a lanthanide donor and a delayed reading to cut background.

The text below walks through data of patent US11753407B2, “Compounds for treating spinal muscular atrophy” (PTC Therapeutics, Inc., priority 2012, dated 2023).

As to `COc1cc(F)cc(-c2cc(=O)n3cc(N4CCN[C@@H](C)C4)ccc3n2)c1` [Compound 140, 2-(3-fluoro-5-methoxyphenyl)-7-[(3S)-3-methylpiperazin-1-yl]-4H-pyrido[1,2-a]pyrimidin-4-one], the melting point (in general, the temperature of the solid-liquid transition) was 154 to 156 °C. Also, the EC (1.5-fold increase) in series [1] lay within 1 to 3 µM. For the same molecule, the “maximum fold (Fold) increase of Smn protein” value (“maximum fold (Fold) increase” for short) in series [2] is “*** (a fold increase between >1.35 and ≤1.5 is indicated by three stars (***))”.
With `Cc1cn2cc(-c3cc(=O)n4cc(N5CCNCC5)ccc4n3)cc(C)c2n1` [Compound 141, 2-(2,8-dimethylimidazo[1,2-a]pyridin-6-yl)-7-(piperazin-1-yl)-4H-pyrido[1,2-a]pyrimidin-4-one], the melting point lay within 270 to 274 °C. The EC (1.5-fold increase) in series [1] is less than 0.1 µM. Further, in series [2], the “EC1.5x for Smn protein expression” value was “**** (an EC1.5x≤0.3 μM is indicated by four stars (****))” and the “maximum fold (Fold) increase” value was “***** (a fold increase >1.65 is indicated by five stars (*****))”.
On to `COc1ccc(-c2cc(=O)n3cc(N4CCN[C@@H](C)C4)cc(C)c3n2)cc1OC` [Compound 142, 2-(3,4-dimethoxyphenyl)-9-methyl-7-[(3S)-3-methylpiperazin-1-yl]-4H-pyrido[1,2-a]pyrimidin-4-one], for which the melting point was 176 to 182 °C. In addition, in series [1], the EC (1.5-fold increase) lay within 0.3 to 1 µM. Also, the “maximum fold (Fold) increase” value in series [2] was “*** (a fold increase between >1.35 and ≤1.5 is indicated by three stars (***))”.
Regarding `COc1ccc(-c2cc(=O)n3cc(N4CCN(O)CC4)ccc3n2)cc1OC` [Compound 146, 2-(3,4-dimethoxyphenyl)-7-(4-hydroxypiperazin-1-yl)-4H-pyrido[1,2-a]pyrimidin-4-one], the melting point is 202 to 204 °C. For the same molecule, the EC (1.5-fold increase) in series [1] lay within 1 to 3 µM. Besides, the “maximum fold (Fold) increase” value in series [2] is on record as “* (A maximum fold increase of ≤1.2 is indicated by one star (*))”.
`COc1ccc(-c2cc(=O)n3cc(N4CC[C@H](N(C)C)C4)ccc3n2)cc1OC` [Compound 147, 2-(3,4-dimethoxyphenyl)-7-[(3S)-3-(dimethylamino)pyrrolidin-1-yl]-4H-pyrido[1,2-a]pyrimidin-4-one] displayed a melting point of 156 to 158 °C. The EC (1.5-fold increase) in series [1] was 1 to 3 µM. For the same molecule, the “maximum fold (Fold) increase” value in series [2] is “* (A maximum fold increase of ≤1.2 is indicated by one star (*))”.
Molecule `COc1ccc(-c2cc(=O)n3cc(N4CCC(N(C)C)CC4)ccc3n2)cc1OC` [Compound 148, 2-(3,4-dimethoxyphenyl)-7-[4-(dimethylamino)piperidin-1-yl]-4H-pyrido[1,2-a]pyrimidin-4-one] came in with a melting point of 158 to 161 °C. Besides, the EC (1.5-fold increase) in series [1] was in the range of 0.1 to 0.3 µM. For the same molecule, in series [2], the “EC1.5x for Smn protein expression” value is “** (an EC1.5× between >1 μM and ≤3 μM is indicated by two stars (**))”; the “maximum fold (Fold) increase” value was “*** (a fold increase between >1.35 and ≤1.5 is indicated by three stars (***))”.
The molecule `COc1ccc(-c2cc(=O)n3cc(N4CCNCC4)ccc3n2)cc1C` [Compound 149, 2-(4-methoxy-3-methylphenyl)-7-(piperazin-1-yl)-4H-pyrido[1,2-a]pyrimidin-4-one] came in with a melting point of 198 to 203 °C. Moreover, the EC (1.5-fold increase) in series [1] lay in the range of 0.3 to 1 µM. The “maximum fold (Fold) increase” value in series [2] is “** (a fold increase between >1.2 and ≤1.35 is indicated by two stars (**))”.
Regarding `N#Cc1cccc(-c2cc(=O)n3cc(N4CCNCC4)ccc3n2)c1` [Compound 150, 3-[4-oxo-7-(piperazin-1-yl)-4H-pyrido[1,2-a]pyrimidin-2-yl]benzonitrile], the melting point lay in the range of 224 to 231 °C. The EC (1.5-fold increase) in series [1] is 0.3 to 1 µM. In addition, in series [2], the “EC1.5x for Smn protein expression” value was “** (an EC1.5× between >1 μM and ≤3 μM is indicated by two stars (**))”; the “maximum fold (Fold) increase” value is “**** (a fold increase between >1.5 and ≤1.65 is indicated by four stars (****))”.
The molecule `COc1ccc(-c2cc(=O)n3cc(N4CCNCC4)ccc3n2)cc1C#N` [Compound 151, 2-methoxy-5-[4-oxo-7-(piperazin-1-yl)-4H-pyrido[1,2-a]pyrimidin-2-yl]benzonitrile] displayed a melting point of 191 to 197 °C. The EC (1.5-fold increase) in series [1] was in the range of 0.1 to 0.3 µM. The “maximum fold (Fold) increase” value in series [2] is “*** (a fold increase between >1.35 and ≤1.5 is indicated by three stars (***))”.
`O=c1cc(-c2ccc(O)c(F)c2)nc2ccc(N3CCNCC3)cn12` [Compound 152, 2-(3-fluoro-4-hydroxyphenyl)-7-(piperazin-1-yl)-4H-pyrido[1,2-a]pyrimidin-4-one] had a melting point of 259 to 266 °C. Moreover, the EC (1.5-fold increase) in series [1] is 0.1 to 0.3 µM. Also, in series [2], the “EC1.5x for Smn protein expression” value was “**** (an EC1.5x≤0.3 μM is indicated by four stars (****))” and the “maximum fold (Fold) increase” value is recorded as “***** (a fold increase >1.65 is indicated by five stars (*****))”.
In turn, `O=c1cc(-c2ccc(OCC(F)(F)F)c(F)c2)nc2ccc(N3CCNCC3)cn12` [Compound 154, 2-[3-fluoro-4-(2,2,2-trifluoroethoxy)phenyl]-7-(piperazin-1-yl)-4H-pyrido[1,2-a]pyrimidin-4-one] returned a melting point of 198 to 201 °C. In addition, the EC (1.5-fold increase) in series [1] was 1 to 3 µM. In series [2], the “maximum fold (Fold) increase” value is on record as “* (A maximum fold increase of ≤1.2 is indicated by one star (*))”.
`Cc1nc2cc(-c3cc(=O)n4cc(N5CCNCC5)ccc4n3)ccc2o1` [Compound 155, 2-(2-methyl-1,3-benzoxazol-5-yl)-7-(piperazin-1-yl)-4H-pyrido[1,2-a]pyrimidin-4-one] had a melting point of 178 to 183 °C. For the same molecule, in series [1], the EC (1.5-fold increase) lay in the range of 0.1 to 0.3 µM. For the same molecule, the “maximum fold (Fold) increase” value in series [2] is “** (a fold increase between >1.2 and ≤1.35 is indicated by two stars (**))”.
The molecule `Cc1ccc(-c2cc(=O)n3cc(N4CCNCC4)ccc3n2)cc1F` [Compound 157, 2-(3-fluoro-4-methylphenyl)-7-(piperazin-1-yl)-4H-pyrido[1,2-a]pyrimidin-4-one] had a melting point of 174 to 176 °C. Moreover, the EC (1.5-fold increase) in series [1] lay within 1 to 3 µM. Also, the “maximum fold (Fold) increase” value in series [2] is “** (a fold increase between >1.2 and ≤1.35 is indicated by two stars (**))”.
Regarding `Cc1ccc(-c2cc(=O)n3cc(N4CCN[C@@H](C)C4)ccc3n2)cc1F` [Compound 158, 2-(3-fluoro-4-methylphenyl)-7-[(3S)-3-methylpiperazin-1-yl]-4H-pyrido[1,2-a]pyrimidin-4-one], the melting point lay within 175 to 178 °C. In addition, the EC (1.5-fold increase) in series [1] was in the range of 1 to 3 µM. The “maximum fold (Fold) increase” value in series [2] is on record as “* (A maximum fold increase of ≤1.2 is indicated by one star (*))”.
For `COc1ccc(-c2cc(=O)n3cc(N4CC[C@H](N)C4)ccc3n2)cc1OC` [Compound 159, 7-[(3S)-3-aminopyrrolidin-1-yl]-2-(3,4-dimethoxyphenyl)-4H-pyrido[1,2-a]pyrimidin-4-one], the melting point fell in the range of 148 to 151 °C. The EC (1.5-fold increase) in series [1] lay in the range of 1 to 3 µM. For the same molecule, the “maximum fold (Fold) increase” value in series [2] is “*** (a fold increase between >1.35 and ≤1.5 is indicated by three stars (***))”.
